# Tests used:
# Format in all cases: in vivo, Sprague-Dawley rats
# [1] = tested on: trigeminal nucleus caudalis wide dynamic range (WDR) neurons; experiment: Electrical stimulation-induced responses of trigeminal nucleus caudalis WDR neurons, single unit extracellular recording; conditions: rat
# Protocol: Male Sprague-Dawley rats (Charles River Laboratories) were anesthetized with isoflurane and used in the following experiments. In the anesthetized rats, single unit, extracellular recordings were performed in trigeminal nucleus caudalis while stimulating the ipsilateral facial skin with constant-current bipolar electrical stimulation. Epoxylate-insulated, tungsten microelectrodes (10 MOhm) were used under stereotaxic coordinate control.
# Shown are responses (action potentials per 30 stimuli) to repeated stimulation of a rat's face before oxytocin administration (pre-oxytocin). After administration with oxytocin at approximately 0.1 IU, responses were recorded every five minutes for 65 minutes. A second administration of oxytocin at the same dosage was administered at approximately 70 minutes after the first dose. The approximate site of the administration of the electrical stimulation is indicated by the black spot on a map of the rat's face (FIG. 3B).
# [2] = tested on: pain sensing nerve cells in the trigeminal ganglion; experiment: Nerve impulses of single pain sensing nerve cells in the trigeminal ganglion in response to noxious laser pulses to the face; conditions: rat, 10 nmoles applied to the nose
# Protocol: Sprague-Dawley rats (Charles River Laboratories) were anesthetized with isofluorane and a platinum electrode was inserted transcranially into the trigeminal ganglion. Nerve impulses (action potential) were recorded from single pain sensing nerve cells in the trigeminal ganglion in response to application of noxious laser pulses to the face of the rats. After recording responses to several identical laser pulses, 10 nmoles of oxytocin was applied to the nose of the rats. Thereafter, identical laser pulses were once again applied and recorded.
# [3] = tested on: second-order neurons in the trigeminal nucleus caudalis; experiment: Electrical stimulus-induced windup of trigeminal nucleus caudalis neurons; conditions: rat, intranasal 0.025 ml of 0.05 mg/ml
# Excerpt: Male Sprague-Dawley rats (Charles River Laboratories) were anesthetized with isoflurane and used in the following experiments. […] Needle electrodes were inserted subcutaneously at the site indicated in FIG. 5A by the black spot on the rat's head, and the skin was stimulated at 0.66 Hz, 2 msec duration, 3× C-fiber threshold for >25 times.
# [4] = tested on: trigeminal nucleus caudalis wide dynamic range (WDR) neurons; experiment: Long-pulse laser-induced responses of trigeminal nucleus caudalis WDR neurons; conditions: rat, intranasal 0.025 ml of 0.05 mg/ml
# Protocol: Male Sprague-Dawley rats (Charles River Laboratories) were anesthetized with isoflurane and used in the following experiments. In the anesthetized rats, single unit, extracellular recordings were performed in trigeminal nucleus caudalis while stimulating the ipsilateral facial skin with diode laser or constant-current bipolar electrical stimulation. Epoxylate-insulated, tungsten microelectrodes (10 MOhm) were used under stereotaxic coordinate control. […] Shown are responses (action potentials per second) to an 8 second-duration, 425 mA intensity laser stimulus to the site indicated by the black spot on a map of the rat's face (FIG. 4E).
# [5] = Withdrawal latencies after noxious laser thermal stimulation of ears or hindpaws after intranasal administration; conditions: rat, intranasal 10 nmoles/kg, tested from five minutes after final application
# Excerpt: One way to test activity of an analgesic agent in a rat model is by treatment-induced changes in latencies (times) of withdrawal in response to noxious heating of the skin, typically using an ear, the face or a hindpaw. Thus, application of coherent or non-coherent (non-laser) radiant heat to the ear, the face or hindpaw will elicit rapid withdrawal movements. […] Transmucosal or transdermal administration of analgesic agents to the trigeminal nerve to reduce trigeminal nerve-associated pain can be tested for regional and/or systemic analgesia. The rostral external part of a rat's ear is innervated by a branch of the mandibular nerve, itself a branch of the trigeminal nerve, thus after treatment an increase in latency to withdrawal time would indicate regional analgesia. […]
# Sprague-Dawley rats (Charles River Laboratories) were lightly anesthetized with urethane and placed with minimal restraint on a heating pad to maintain their body temperature at 37° C. […] Baseline withdrawal latencies were measured by delivering 4 separate stimuli with a resting period of approximately 15 minutes between each stimulus. […] As described above, testing sessions were videotaped and analyzed.
# [6] = intranasal approximately 0.1 IU, first dose
compound,measurement,setting,value
"CC[C@H](C)[C@@H]1NC(=O)[C@H](Cc2ccc(O)cc2)NC(=O)[C@@H](N)CSSC[C@@H](C(=O)N2CCC[C@H]2C(=O)N[C@@H](CC(C)C)C(=O)NCC(N)=O)NC(=O)[C@H](CC(N)=O)NC(=O)[C@H](CCC(N)=O)NC1=O [Oxytocin, Cys-Tyr-Ile-Gln-Asn-Cys-Pro-Leu-Gly]",responses (action potentials per 30 stimuli) after first administration (FIG. 3A),"[1]; intranasal approximately 0.1 IU, electrical stimulation of facial skin",significant reduction in responses
same,time after first administration at which significant reduction in responses began,[1]; [6],10 min
same,"time post treatment until which reduction continued, when responses began to increase",[1]; [6],50 min
same,time to significant reduction in responses after second treatment,[1]; second dose approximately 0.1 IU at approximately 70 minutes after the first,≤ 10 min
same,neuronal response (average nerve impulses per laser pulse) post- vs pre-treatment (FIG. 2),[2],significantly (p<0.05) reduced
C[C@@H](O)[C@@H]1NC(=O)[C@H](CCCCN)NC(=O)[C@@H](Cc2c[nH]c3ccccc23)NC(=O)[C@H](Cc2ccccc2)NC(=O)[C@@H](NC(=O)[C@H](N)Cc2ccccc2)CSSC[C@@H](C(=O)N[C@H](CO)[C@@H](C)O)NC1=O [octreotide],"total number of action potentials during the stimulation period, 10 minutes after administration","[3]; 0.66 Hz, 2 msec, 3x C-fiber threshold, 506 before treatment",408
same,"reduction of total number of action potentials, 10 minutes after administration",[3]; versus before treatment,19.4%
same,response 25 minutes post-treatment,[4],recovered
same,response five minutes post-treatment,[4]; 8 second 425 mA laser stimulus to face,no detectable reduction in response
same,response at 10 minutes post-treatment,"[4]; 8 second 425 mA laser stimulus, baseline 42 spikes",5 spikes
same,reduction of response at 10 minutes post-treatment,[4]; versus pre-treatment baseline,88%
Tyr-Gly-Gly-Phe-Met [met-enkephalin],"analgesic effect, ear withdrawal latency (FIG. 1A)",[5]; laser stimulation of ears,achieved a regional analgesic effect in the head region
same,"systemic analgesic effect, hindpaw withdrawal latency (FIG. 1B)",[5]; laser stimulation of hindpaws,without a systemic analgesic effect at the hindpaw

# From patent US20070093420A1, “Therapy procedure for drug delivery for trigeminal pain” (priority 2005, published 2007)
